Patent US8481531B2, “Bicyclic heterocyclyl derivatives as FGFR kinase inhibitors for therapeutic use” (Astex Therapeutics Ltd, priority 2009, dated 2013)

What was measured:
VEGFR2 = target: T1, VEGFR2 (Homo sapiens, UniProt P35968); test: VEGFR2 in vitro kinase inhibitory activity assay (TRF); type: biochemical; settings: read-out: VEGFR2 IC50(μM) or % I; for IC50: 0.5 μM ATP, 1 hour
T1 construct: purchased Upstate
Protocol: (§1) FGFR3, VEGFR2 and PDGFR in vitro Kinase Inhibitory Activity Assays
(§2) Enzymes (from Upstate), prepared at 2× final concentration, were incubated with test compounds, biotinylated Flt3 substrate (biotin-VASSDNEYFYVDF) (Cell Signalling Technology Inc.) and ATP in the appropriate assay buffer (Table 1). The reaction was allowed to proceed for 3 hours (FGFR3), 1 hour (VEGFR2, PDGFR-beta) at room temperature on a plate shaker at 700 rpm before being stopped with 35 mM EDTA, pH 8 (FGFR3, VEGFR2) or 55 mM EDTA, pH 8 (PDGFR-beta). 5× detection mix (50 mM HEPES pH 7.5, 0.1% BSA, 11.34 nM Eu-anti-pY (PY20) (PerkinElmer) 74 nM SA-XL665 (Cisbio) for FGFR3, 50 mM HEPES, pH 7.5, 0.1% BSA, 11.34 nM Eu-anti-pY (PY20), 187.5 nM SA-XL665 for VEGFR2 and 50 mM HEPES, pH 7.5, 0.1% BSA, 11.34 nM Eu-anti-pY (PT66) (PerkinElmer), 375 nM SA-XL665 (Cisbio) for PDGFR-beta) was then added to each well and the plate sealed and incubated at room temperature for one hour on a plate shaker at 700 rpm. The plate was then read on a Packard Fusion plate reader or a BMG Pherastar both in TRF mode.

Ba/F3-TEL-FGFR3 cells = target: T2, Ba/F3-TEL-FGFR3 cells (Homo sapiens, UniProt P22607); test: Ba/F3-TEL-FGFR3 cell proliferation assay (Alamar Blue); type: cell-based; settings: 72 hours; for GI50: read-out: BaF3-TEL-FGFR3 prolif
T2 construct: fused on or other part: P41212 (Transcription factor ETV6)
T2 sequence (P22607 whole entry, change not shown, the tested form may be a part): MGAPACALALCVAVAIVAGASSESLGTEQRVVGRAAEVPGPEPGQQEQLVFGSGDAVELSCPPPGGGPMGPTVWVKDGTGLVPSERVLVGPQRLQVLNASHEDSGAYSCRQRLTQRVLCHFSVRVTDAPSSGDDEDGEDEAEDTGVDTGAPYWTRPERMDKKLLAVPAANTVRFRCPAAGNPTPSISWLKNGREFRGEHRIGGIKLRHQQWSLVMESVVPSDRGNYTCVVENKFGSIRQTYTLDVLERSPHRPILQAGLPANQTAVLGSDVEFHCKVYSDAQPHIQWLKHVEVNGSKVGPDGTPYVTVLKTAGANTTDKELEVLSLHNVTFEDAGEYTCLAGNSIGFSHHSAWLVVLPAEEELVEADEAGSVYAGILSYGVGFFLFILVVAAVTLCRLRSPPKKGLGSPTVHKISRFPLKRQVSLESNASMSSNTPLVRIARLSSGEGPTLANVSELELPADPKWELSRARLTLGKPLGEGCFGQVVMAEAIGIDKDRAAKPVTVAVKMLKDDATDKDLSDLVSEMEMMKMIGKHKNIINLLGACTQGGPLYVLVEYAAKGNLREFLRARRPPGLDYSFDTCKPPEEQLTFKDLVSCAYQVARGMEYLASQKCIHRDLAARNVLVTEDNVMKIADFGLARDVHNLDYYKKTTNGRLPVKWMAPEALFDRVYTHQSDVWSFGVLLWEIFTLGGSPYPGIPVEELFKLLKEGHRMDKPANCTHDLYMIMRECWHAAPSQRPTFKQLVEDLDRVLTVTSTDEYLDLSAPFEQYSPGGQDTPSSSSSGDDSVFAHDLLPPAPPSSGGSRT
Protocol: (§3) Ba/F3-TEL-FGFR3 & Ba/F3 (WT) Cell Proliferation Assays
(§4) Stably transfected Ba/F3-TEL-FGFR3 cells were plated out into black 96-well tissue culture plates with clear bottoms in RPMI medium containing 10% FBS and 0.25 mg/ml G418 at a density of 5×10^3 cells/well (200 μl per well). The parental wild-type Ba/F3 cells (DSMZ no.: ACC 300) were plated out into black 96-well tissue culture plates with clear bottoms in RPMI medium containing 10% FBS and 2 ng/ml mouse IL-3 (R&D Systems) at a density of 2.5×10^3 cells/well (200 μl per well). Plates were placed in an incubator overnight before adding the compounds the following day. Dilutions of compounds were made in DMSO starting at 10 mM and were diluted into the wells to give a final DMSO concentration of 0.1% in assay. Compounds were left on the cells for 72 hours before the plates were removed from the incubator and 20 μl of Alamar Blue™ (Biosource) was added to each well. Plates were placed in the incubator for 4-6 hours before reading plates at 535 nm (excitation)/590 nm (emission) on a Fusion plate reader (Packard). Where inhibition is high an IC50 can be determined.

FGFR3 = target: T3, FGFR3 (Homo sapiens, UniProt P22607); test: FGFR3 in vitro kinase inhibitory activity assay (TRF); type: biochemical; settings: 8 μM ATP, 3 hours; read-out: FGFR3 IC50(μM) or % I
T3 construct: purchased Upstate
T3 sequence (P22607 23-806): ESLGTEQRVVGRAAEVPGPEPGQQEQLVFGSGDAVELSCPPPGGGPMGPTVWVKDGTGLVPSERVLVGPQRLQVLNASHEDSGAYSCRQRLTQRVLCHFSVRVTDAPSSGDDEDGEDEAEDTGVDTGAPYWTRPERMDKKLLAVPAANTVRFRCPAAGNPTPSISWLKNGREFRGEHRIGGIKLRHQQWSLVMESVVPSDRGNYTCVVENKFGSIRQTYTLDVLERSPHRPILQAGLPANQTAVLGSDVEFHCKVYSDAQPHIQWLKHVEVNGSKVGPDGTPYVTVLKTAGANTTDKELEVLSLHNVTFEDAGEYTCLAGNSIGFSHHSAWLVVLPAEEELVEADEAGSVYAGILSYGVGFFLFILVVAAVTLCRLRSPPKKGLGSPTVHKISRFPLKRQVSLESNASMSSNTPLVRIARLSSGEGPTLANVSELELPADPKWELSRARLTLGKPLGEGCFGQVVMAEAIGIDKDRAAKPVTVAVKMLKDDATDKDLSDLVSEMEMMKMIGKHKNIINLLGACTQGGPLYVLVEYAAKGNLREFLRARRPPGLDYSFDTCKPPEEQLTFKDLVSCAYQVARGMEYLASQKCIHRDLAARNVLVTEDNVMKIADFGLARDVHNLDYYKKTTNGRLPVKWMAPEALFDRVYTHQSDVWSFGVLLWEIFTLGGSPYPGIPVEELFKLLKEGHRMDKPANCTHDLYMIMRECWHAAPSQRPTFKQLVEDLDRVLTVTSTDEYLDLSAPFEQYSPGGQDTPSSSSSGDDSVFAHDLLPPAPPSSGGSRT
Protocol: as §1, §2

[1] = system: parental wild-type Ba/F3 cells; test: Ba/F3 (WT) cell proliferation assay (Alamar Blue); type: cell-based; settings: BaF3, 72 hours, read-out: BaF3 WT prolif; for IC50: with mouse IL-3; for inhibition at 10 µM / inhibition at 3 µM: Mus musculus
Protocol: as §3, §4

T1 sequence (P35968 20-1356): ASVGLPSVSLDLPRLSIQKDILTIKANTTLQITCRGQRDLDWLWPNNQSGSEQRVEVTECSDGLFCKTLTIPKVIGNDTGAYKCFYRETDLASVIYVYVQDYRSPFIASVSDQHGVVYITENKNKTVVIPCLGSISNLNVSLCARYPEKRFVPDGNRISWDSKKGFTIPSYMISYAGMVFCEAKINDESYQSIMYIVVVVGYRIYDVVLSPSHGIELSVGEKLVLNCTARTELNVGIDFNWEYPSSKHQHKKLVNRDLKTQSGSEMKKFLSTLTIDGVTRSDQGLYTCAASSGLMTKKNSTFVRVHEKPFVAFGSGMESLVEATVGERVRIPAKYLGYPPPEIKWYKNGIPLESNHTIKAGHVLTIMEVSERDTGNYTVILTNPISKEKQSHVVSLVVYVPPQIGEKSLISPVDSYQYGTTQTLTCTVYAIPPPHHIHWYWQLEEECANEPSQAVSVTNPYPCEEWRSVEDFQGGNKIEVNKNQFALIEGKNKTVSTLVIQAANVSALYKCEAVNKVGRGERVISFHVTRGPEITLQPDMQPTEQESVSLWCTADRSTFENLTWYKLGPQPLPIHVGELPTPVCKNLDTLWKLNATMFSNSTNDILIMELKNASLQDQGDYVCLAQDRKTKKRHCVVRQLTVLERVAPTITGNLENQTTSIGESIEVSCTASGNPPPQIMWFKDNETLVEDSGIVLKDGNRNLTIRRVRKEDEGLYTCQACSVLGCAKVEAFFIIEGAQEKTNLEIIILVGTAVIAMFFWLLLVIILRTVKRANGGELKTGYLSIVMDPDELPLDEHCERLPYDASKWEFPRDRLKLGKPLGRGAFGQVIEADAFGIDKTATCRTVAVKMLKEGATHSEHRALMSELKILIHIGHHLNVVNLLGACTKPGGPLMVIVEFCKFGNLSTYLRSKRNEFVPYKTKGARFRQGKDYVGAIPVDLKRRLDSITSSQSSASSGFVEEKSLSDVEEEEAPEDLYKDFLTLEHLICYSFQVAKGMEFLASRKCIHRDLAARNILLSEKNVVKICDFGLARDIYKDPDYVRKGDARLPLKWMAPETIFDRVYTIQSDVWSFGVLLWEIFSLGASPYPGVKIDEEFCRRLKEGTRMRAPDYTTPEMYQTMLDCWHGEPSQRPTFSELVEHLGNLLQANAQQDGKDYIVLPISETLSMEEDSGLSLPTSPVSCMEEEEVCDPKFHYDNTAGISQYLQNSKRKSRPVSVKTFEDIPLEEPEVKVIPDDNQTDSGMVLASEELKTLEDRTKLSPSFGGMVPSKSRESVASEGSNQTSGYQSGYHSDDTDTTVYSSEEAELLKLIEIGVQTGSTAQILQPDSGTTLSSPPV

Structure (SMILES)	IC50 (VEGFR2)	GI50 (Ba/F3-TEL-FGFR3 cells)	IC50 (FGFR3)	inhibition at 1 µM (VEGFR2; 1 h, % I at 1 μM)	BaF3-TEL-FGFR3 prolif (μM) (Ba/F3-TEL-FGFR3 cells; % at 10.0 μM)	IC50 [1]	inhibition at 10 µM [1]	inhibition at 3 µM [1]
O=C(NCC(F)(F)F)Nc1cccc(-c2cnc3cc(C(=NO)C4CC4)ccn23)c1 [Compound 1-50, 1-[3-(7-{Cyclopropyl-hydroxyimino-methyl}-imidazo[1,2-a]pyridin-3-yl)-phenyl]-3-(2,2,2-trifluoro-ethyl)-urea]	0.23 µM	0.3 µM	0.0097 µM	–	–	–	62%	–
O=C(NCC(F)(F)F)Nc1cccc(-c2cnc3cc(C=NOCc4cccnc4)ccn23)c1 [Compound 1-55, 1-(3-{7-[(Pyridin-3-ylmethoxyimino)-methyl]-imidazo[1,2-a]pyridin-3-yl}-phenyl)-3-(2,2,2-trifluoro-ethyl)-urea]	0.38 µM	0.14 µM	0.0077 µM	–	–	–	–	51%
Cc1noc(C)c1CON=Cc1ccn2c(-c3cccc(NC(=O)NCC(F)(F)F)c3)cnc2c1 [Compound 1-12, 1-(3-{7-[(3,5-Dimethyl-isoxazol-4-ylmethoxyimino)-methyl]-imidazo[1,2-a]pyridin-3-yl}-phenyl)-3-(2,2,2-trifluoro-ethyl)-urea]	0.54 µM	0.24 µM	0.018 µM	–	–	–	38%	–
CC(C)Oc1cc(NC(=O)NCC(F)(F)F)cc(-c2cnc3cc(/C(=N/O)C4CC4)ccn23)c1 [Compound 1-31, 1-[3-(7-{Cyclopropyl-hydroxyimino-methyl}-imidazo[1,2-a]pyridin-3-yl)-5-isopropoxy-phenyl]-3-(2,2,2-trifluoro-ethyl)-urea]	1.34 µM	0.47 µM	0.023 µM	–	–	6.2 µM	–	–
C/C(=N\OCCO)c1ccn2c(-c3cccc(NC(=O)NCC(F)(F)F)c3)cnc2c1 [Compound 1-62, 1-[3-(7-{1-2-Hydroxy-ethoxyimino-ethyl}-imidazo[1,2-a]pyridin-3-yl)-phenyl]-3-(2,2,2-trifluoro-ethyl)-urea]	0.051 µM	0.11 µM	0.0035 µM	–	–	–	45%	–
CCC(=NOC)c1ccn2c(-c3cccc(NC(=O)NCC(F)(F)F)c3)cnc2c1 [Compound 1-25, 1-[3-(7-{1-Methoxyimino-propyl}-imidazo[1,2-a]pyridin-3-yl)-phenyl]-3-(2,2,2-trifluoro-ethyl)-urea]	0.24 µM	0.32 µM	0.011 µM	–	–	–	–	46%
CC(C)(C)c1nc(CON=Cc2ccn3c(-c4cccc(NC(=O)NCC(F)(F)F)c4)cnc3c2)no1 [Compound 1-14, 1-(3-{7-[(5-tert-Butyl-[1,2,4]oxadiazol-3-ylmethoxyimino)-methyl]-imidazo[1,2-a]pyridin-3-yl}-phenyl)-3-(2,2,2-trifluoro-ethyl)-urea]	0.68 µM	0.56 µM	0.027 µM	–	–	–	–	43%
O=C(NCC(F)(F)F)Nc1cccc(-c2cnc3cc(/C(=N/OCCO)C4CC4)ccn23)c1 [Compound 1-32, 1-[3-(7-{Cyclopropyl-[2-hydroxy-ethoxyimino]-methyl}-imidazo[1,2-a]pyridin-3-yl)-phenyl]-3-(2,2,2-trifluoro-ethyl)-urea]	0.96 µM	1.1 µM	0.072 µM	–	–	–	50%	–
O=C(NCC(F)(F)F)Nc1cccc(-c2cnc3cc(/C(=N\OCCO)C4CC4)ccn23)c1 [Compound 1-33, 1-[3-(7-{Cyclopropyl-[2-hydroxy-ethoxyimino]-methyl}-imidazo[1,2-a]pyridin-3-yl)-phenyl]-3-(2,2,2-trifluoro-ethyl)-urea]	0.18 µM	0.25 µM	0.018 µM	–	–	11 µM	–	–
Nc1nc(CON=Cc2ccn3c(-c4cccc(NC(=O)NCC(F)(F)F)c4)cnc3c2)cs1 [Compound 1-16, 1-(3-{7-[(2-Amino-thiazol-4-ylmethoxyimino)-methyl]-imidazo[1,2-a]pyridin-3-yl}-phenyl)-3-(2,2,2-trifluoro-ethyl)-urea]	0.61 µM	1.3 µM	0.018 µM	–	–	–	19%	–

The next lines start with results.

IC50 (VEGFR2)	GI50 (Ba/F3-TEL-FGFR3 cells)	IC50 (FGFR3)	inhibition at 1 µM (VEGFR2; 1 h, % I at 1 μM)	BaF3-TEL-FGFR3 prolif (μM) (Ba/F3-TEL-FGFR3 cells; % at 10.0 μM)	Structure (SMILES)	IC50 [1]	inhibition at 10 µM [1]	inhibition at 3 µM [1]
0.66 µM	0.23 µM	0.013 µM	–	–	Cc1cc(CON=Cc2ccn3c(-c4cccc(NC(=O)NCC(F)(F)F)c4)cnc3c2)no1 [Compound 1-17, 1-(3-{7-[(5-Methyl-isoxazol-3-ylmethoxyimino)-methyl]-imidazo[1,2-a]pyridin-3-yl}-phenyl)-3-(2,2,2-trifluoro-ethyl)-urea]	4.1 µM	–	–
0.885 µM	0.29 µM	0.019 µM	–	–	COCCOCCON=Cc1ccn2c(-c3cccc(NC(=O)NCC(F)(F)F)c3)cnc2c1 [Compound 1-2, 1-[3-(7-{[2-(2-Methoxy-ethoxy)-ethoxyimino]-methyl}-imidazo[1,2-a]pyridin-3-yl)-phenyl]-3-(2,2,2-trifluoro-ethyl)-urea]	1.6 µM	–	–
0.88 µM	2.2 µM	0.033 µM	–	–	CN1CCN(C(=O)CCON=Cc2ccn3c(-c4cccc(NC(=O)NCC(F)(F)F)c4)cnc3c2)CC1 [Compound 1-51, 1-[3-(7-{[3-(4-Methyl-piperazin-1-yl)-3-oxo-propoxyimino]-methyl}-imidazo[1,2-a]pyridin-3-yl)-phenyl]-3-(2,2,2-trifluoro-ethyl)-urea]	–	27%	–
–	0.6 µM	0.027 µM	46%	–	O=C(NCC(F)(F)F)Nc1cccc(-c2cnc3cc(C=NOCC4CC4)ccn23)c1 [Compound 1-11, 1-{3-[7-(Cyclopropylmethoxyimino-methyl)-imidazo[1,2-a]pyridin-3-yl]-phenyl}-3-(2,2,2-trifluoro-ethyl)-urea]	0.88 µM	–	–
0.26 µM	–	0.038 µM	–	60.0% at	CN1CCC(NCCCON=Cc2ccn3c(-c4cccc(NC(=O)NCC(F)(F)F)c4)cnc3c2)CC1 [Compound 1-34, 1-[3-(7-{[3-(1-Methyl-piperidin-4-ylamino)-propoxyimino]-methyl}-imidazo[1,2-a]pyridin-3-yl)-phenyl]-3-(2,2,2-trifluoro-ethyl)-urea]	–	0%	–
0.44 µM	0.93 µM	0.029 µM	–	–	O=C(NCC(F)(F)F)Nc1cccc(-c2cnc3cc(C=NOCC(O)CNC4CC4)ccn23)c1 (stereo not shown) [Compound 1-61, 1-(3-{7-[(3-Cyclopropylamino-2-hydroxy-propoxyimino)-methyl]-imidazo[1,2-a]pyridin-3-yl}-phenyl)-3-(2,2,2-trifluoro-ethyl)-urea]	–	–	30%
0.682 µM	0.31 µM	0.018 µM	–	–	O=C(NCC(F)(F)F)Nc1cccc(-c2cnc3cc(C=NOCCCN4CCOCC4)ccn23)c1 [Compound 1-3, 1-(3-{7-[(3-Morpholin-4-yl-propoxyimino)-methyl]-imidazo[1,2-a]pyridin-3-yl}-phenyl)-3-(2,2,2-trifluoro-ethyl)-urea]	2.8 µM	–	–
0.38 µM	0.32 µM	0.019 µM	–	–	CN1CCN(CCCON=Cc2ccn3c(-c4cccc(NC(=O)NCC(F)(F)F)c4)cnc3c2)CC1 [Compound 1-56, 1-[3-(7-{[3-(4-Methyl-piperazin-1-yl)-propoxyimino]-methyl}-imidazo[1,2-a]pyridin-3-yl)-phenyl]-3-(2,2,2-trifluoro-ethyl)-urea]	3 µM	–	–
0.33 µM	1.4 µM	0.019 µM	–	–	O=C(NCC(F)(F)F)Nc1cccc(-c2cnc3cc(C=NOCCC4CCN(CCO)CC4)ccn23)c1 [Compound 1-49, 1-{3-[7-({2-[1-(2-Hydroxy-ethyl)-piperidin-4-yl]-ethoxyimino}-methyl)-imidazo[1,2-a]pyridin-3-yl]-phenyl}-3-(2,2,2-trifluoro-ethyl)-urea]	–	–	36%
